Where two headings read alike, the source gives them in different places.
Key:
[1] = tested on: NMRI male mice; test: Hot plate test in mice; format: in vivo; conditions: sc
Protocol: Hot plate test in mice Method
A modification of method of Eddy et al. (1953) Eddy, N. B., Leimback D.: Synthetic analgesics II. Dithienylbutenyl and dithienylbutylamines. J. Pharmacol. Exp. Ther. 107 /1953/, 385 to 393 was used. NMRI male mice (20 to 25 g body weight) were dropped on a hot plate (56.0 ± 0.5°C) and the latency time elapsed until licking the forepaws was measured. The compounds were administered subcutaneously and 15, 30, 45 and 60 minutes later the reaction time was measured again. Animals were regarded as positive if they produced at least twice 2.5-fold reaction time extension as related to their control values.

[2] = tested on: mice; test: Acetic acid induced writhing test in mice; format: in vivo
Protocol: Acetic acid induced writhing test in mice Method
Groups of 12 mice weighing 20 to 25 g were treated with 0.75% (v/v) acetic acid in a volume of 20 ml/kg administered intraperitoneally according to the method of Koster, R., Anderson, M., de Beer, E. J.: Acetic acid for analgesic screening, Fed. Proc. 18 [1959], 412. Between 5 and 10 minutes after the administration of acetic acid the total number of the typical "writhing" reactions was counted and expressed as percent inhibition compared to the concurrent controls. The test compounds were applied subcutaneously partly with a pretreatment period of 30 min. and partly without such. Statistical evaluation was performed by Student's t test and ID₅₀ values were determined by plotting the log-dose versus percentage response as compared to vehicle-treated animals. 10 mg/kg s.c. 17-(allyl)-4,5α-(epoxy)-3,14-di-(hydroxy)-morphinan-6-one {Naloxone} was administered 15 minutes before drug treatment.

[3] = tested on: mice; conditions: mouse, in vivo, sc, 5 mg/kg
[4] = Mus musculus, hot plate 56.0 ± 0.5°C, subcutaneous, reaction time at 15, 30, 45 and 60 minutes, positive = at least twice 2.5-fold reaction time extension, read-out: ED50

Clc1ccc([C@H]2C[C@H]3CC[C@@H]2N3)cn1 (racemic) [Example 6, Epi-epibatidine]
ED50 ([1]; mouse, in vivo): 0.7 mg/kg s.c.
analgesic potency, times stronger than that of codeine ([1]; mouse, in vivo): 13 times
analgesic potency, times stronger than that of morphine ([1]; mouse, in vivo): 4 times
ID50 Pretreatment with 10 mg/kg naloxone s.c. ([2]; mouse, in vivo): 3.2 mg/kg s.c.
ID50 Without pretreatment ([2]; mouse, in vivo): 2.6 mg/kg s.c.
antagonism of the antinociception by naloxone ([2]; mouse, in vivo): inactive
lethality in mice [3]: does not destroy mice

Fc1ccc([C@H]2C[C@H]3CC[C@@H]2N3)cc1 (racemic) [Example 12, (±)-endo-2β-[1'-(Fluoro)-phen-4'-yl]-7α-azabicyclo[2.2.1]heptane]
ED50 [1, 4]: 2.1 mg/kg

Clc1ccc([C@H]2C[C@H]3CC[C@@H]2N3)cc1 (racemic) [Example 19, (±)-endo-2β-[1'-(Chloro)-phen-4'-yl]-7α-azabicyclo[2.2.1]heptane]
ED50 [1, 4]: 6.3 mg/kg

COc1ccc([C@H]2C[C@H]3CC[C@@H]2N3)cn1 (racemic) [Example 26, (±)-endo-2β-[6'-(Methoxy)-pyrid-3'-yl]-7α-azabicyclo[2.2.1]heptane]
ED50 [1, 4]: 3.1 mg/kg

c1cncc([C@H]2C[C@H]3CC[C@@H]2N3)c1 (racemic) [Example 33, (±)-endo-2β-[Pyrid-3'-yl]-7α-azabicyclo[2.2.1]heptane]
ED50 [1, 4]: ~10 mg/kg

Clc1ccc([C@H]2C[C@H]3CC[C@@H]2N3)c(Cl)c1 (racemic) [Example 42, (±)-endo-2β-[1',3'-Di-(chloro)-phen-4'-yl]-7α-azabicyclo[2.2.1]heptane]
ED50 [1, 4]: 1.8 mg/kg

COc1ccc([C@H]2C[C@H]3CC[C@@H]2N3)c(OC)c1 (racemic) [Example 48, (±)-endo-2β-[1',3'-Di-(methoxy)-phen-4'-yl]-7α-azabicyclo[2.2.1]heptane]
ED50 [1, 4]: 2.9 mg/kg

CCOc1ccc([C@H]2C[C@H]3CC[C@@H]2N3)cn1 (racemic) [Example 49, (±)-2β-[6'-(Ethoxy)-pyrid-3'-yl]-7α-azabicyclo[2.2.1]heptane]
ED50 [1, 4]: 3.5 mg/kg

CN1CC[C@]23c4c5ccc(O)c4O[C@H]2[C@@H](O)C=C[C@H]3[C@H]1C5.Cl [Reference substance A, Morphine-HCl]
ID50 Pretreatment with 10 mg/kg naloxone s.c. ([2]; mouse, in vivo): 46.8 mg/kg s.c.
ID50 Without pretreatment ([2]; mouse, in vivo): 0.6 mg/kg s.c.
increase of ID50 value in antinociception after naloxone pretreatment ([2]; mouse, in vivo): about 80 fold

COc1ccc2c3c1O[C@H]1[C@@H](O)C=C[C@H]4[C@@H](C2)N(C)CC[C@@]341.Cl [Reference substance B, Codeine-HCl]
ED50 [1, 4]: 9.4 mg/kg
ID50 Pretreatment with 10 mg/kg naloxone s.c. ([2]; 0.75% (v/v) acetic acid i.p., naloxone 10 mg/kg s.c. 15 minutes before drug treatment): 45.4 mg/kg s.c.
ED50 ([2]; Mus musculus, sc, 0.75% (v/v) acetic acid i.p., writhing counted between 5 and 10 minutes, no naloxone, read-out: ID50 Without pretreatment): 9.9 mg/kg
increase of ID50 value in antinociception after naloxone pretreatment ([2]; naloxone 10 mg/kg s.c. for 15 minutes): ~5 fold

Source: patent EP0657455A1, “Epi-epibatidine derivatives, a process and intermediates for preparing them and epi-epibatidine and medicaments containing the epi-epibatidine derivatives and/or epi-epibatidine and the use of them” (priority 1993, dated 1995)
